PubChem BioAssay (NCI)
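96-well plates; 48 h exposure; 5 concentrations. Endpoints by linear interpolation between flanking doses. Not reached: highest tested concentration assigned. Definition used: TGI = concentration required for complete inhibition of growth.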

Legend:
Assay in all cases: NCI-60 cell line screen, 48 h
[1] = test system: SK-MEL-2 melanoma
[2] = test system: HT29 colon
[3] = test system: HOP-62 NSCLC
[4] = test system: COLO 205 colon
[5] = test system: ACHN renal
[6] = test system: SN12C renal
[7] = test system: HCC-2998 colon
[8] = test system: 786-0 renal
[9] = test system: SF-295 CNS
[10] = test system: OVCAR-8 ovarian
[11] = test system: SR leukemia

| Structure (SMILES) | TGI [1] | TGI [2] | TGI [3] | TGI [4] | TGI [5] | TGI [6] | TGI [7] | TGI [8] | TGI [9] | TGI [10] | TGI [11] |
| --- | --- | --- | --- | --- | --- | --- | --- | --- | --- | --- | --- |
| CC(=Nc1ccc(Cl)cc1)c1ccncc1 | > 100 µM | > 100 µM | > 100 µM | > 100 µM | > 100 µM | > 100 µM | > 100 µM | > 100 µM | > 100 µM | > 100 µM | – |
| O=C(c1ccccc1)n1cc(/C=C/[N+](=O)[O-])c2ccccc21 | 35.6 µM | > 100 µM | > 100 µM | 59.2 µM | > 100 µM | > 100 µM | – | 39 µM | > 100 µM | > 100 µM | 44.9 µM |
| COc1ccc(/C(C)=C2\CCCN(Cc3ccccc3)C2)cc1 | 43.4 µM | 39.5 µM | 33.6 µM | 32.5 µM | 98.4 µM | – | 44.7 µM | 33.9 µM | 35.1 µM | 35.9 µM | 42.2 µM |
| Cc1cc(C)c(NS(=O)c2ccc(Cl)cc2)c(C)c1 (stereo not drawn) | – | > 100 µM | > 100 µM | > 100 µM | > 100 µM | > 100 µM | > 100 µM | > 100 µM | > 100 µM | > 100 µM | > 100 µM |
| Cc1nc(C)c(N2CCN(Cc3ccccc3)CC2)c(=O)[nH]1 | – | > 100 µM | > 100 µM | > 100 µM | > 100 µM | > 100 µM | > 100 µM | > 100 µM | > 100 µM | > 100 µM | > 100 µM |
| CCOC(=O)/C(=C\c1c[nH]c2ccccc12)P(=O)(OCC)OCC | – | 77.5 µM | > 100 µM | 44.1 µM | > 100 µM | > 100 µM | > 100 µM | 99.6 µM | > 100 µM | 53.5 µM | 61.1 µM |
| C#CN1C(=O)c2c(c(-c3ccccc3)c(-c3ccc(Oc4ccc(-c5c(-c6ccccc6)c6c(c(-c7ccccc7)c5-c5ccccc5)C(=O)N(C#C)C6=O)cc4)cc3)c(-c3ccccc3)c2-c2ccccc2)C1=O | > 100 µM | > 100 µM | > 100 µM | > 100 µM | > 100 µM | > 100 µM | > 100 µM | > 100 µM | > 100 µM | > 100 µM | – |
| Cc1c(-c2coc(-c3ccc([N+](=O)[O-])cc3)n2)c(=O)n(-c2ccccc2)n1C | > 100 µM | > 100 µM | > 100 µM | > 100 µM | > 100 µM | > 100 µM | > 100 µM | > 100 µM | > 100 µM | > 100 µM | – |
| COC(C)=NCCC1=CCCCC1 | > 100 µM | > 100 µM | > 100 µM | > 100 µM | > 100 µM | – | > 100 µM | > 100 µM | > 100 µM | > 100 µM | > 100 µM |
| N#CCCC1(CCC#N)S(=O)(=O)OCCOS1(=O)=O | > 100 µM | > 100 µM | > 100 µM | > 100 µM | > 100 µM | > 100 µM | – | > 100 µM | > 100 µM | > 100 µM | > 100 µM |
| CCC1(c2ccc(OC)c(OC)c2)CCN(S(=O)(=O)c2ccc(C)cc2)C1 (stereo not drawn) | > 100 µM | > 100 µM | > 100 µM | > 100 µM | > 100 µM | > 100 µM | > 100 µM | > 100 µM | > 100 µM | – | > 10 µM |
| COC1(OC)CCN(Cc2ccccc2)C1=O | 34 µM | 21.4 µM | 38.6 µM | 12.5 µM | 19.7 µM | 22.1 µM | 34 µM | 15.7 µM | 53.9 µM | 17.9 µM | – |
| Cc1n[nH]c(=O)n1/N=C/c1ccco1 | > 100 µM | > 100 µM | > 100 µM | > 100 µM | > 100 µM | > 100 µM | > 100 µM | > 100 µM | > 100 µM | > 100 µM | – |
| O=[N+]([O-])C(C(Cl)=C(Cl)Cl)=C(N1CCCCC1)N1CCCCC1 | – | > 100 µM | > 100 µM | > 100 µM | > 100 µM | > 100 µM | > 100 µM | > 100 µM | > 100 µM | > 100 µM | > 100 µM |
| NC(=O)C1=C(O)[C@@]2(O)C(=O)C3=C(O)c4c(O)cccc4CC3C[C@H]2CC1=O (stereo partly drawn) | 4.72 µM | 7.34 µM | 14.1 µM | 3.17 µM | 19.5 µM | 14.5 µM | 16.1 µM | 17.6 µM | 13.5 µM | 17.3 µM | – |
| CC1=CC2(C)C=C[C@@H]1C(=O)[C@@]1(C)CC[C@@](O)(C(C)C)[C@H]1CC2 | 77 µM | 32.6 µM | 35.2 µM | 40.2 µM | 45.9 µM | 39.4 µM | 34.6 µM | 33.3 µM | 38.1 µM | 32.6 µM | – |
| O=c1[nH]c(=O)n([C@H]2C[C@@H](CO)[C@@H](O)C2)cc1I | > 100 µM | > 100 µM | > 100 µM | > 100 µM | > 100 µM | > 100 µM | > 100 µM | > 100 µM | – | > 100 µM | – |
| Nc1ncnc2c1ccn2CC#CCO | > 100 µM | > 100 µM | > 100 µM | > 100 µM | > 100 µM | > 100 µM | > 100 µM | > 100 µM | > 100 µM | > 100 µM | – |
| CC(C)CCNC(=O)c1ccc(CNC(=O)/C=C/c2ccc3ccccc3c2)cc1 | > 100 µM | – | > 100 µM | > 100 µM | > 100 µM | > 100 µM | > 100 µM | > 100 µM | > 100 µM | > 100 µM | > 100 µM |
| Cc1cc2c(cc1Cl)SC(NNCCO)=NS2(=O)=O | > 100 µM | > 100 µM | > 100 µM | > 100 µM | > 100 µM | – | > 100 µM | > 100 µM | > 100 µM | > 100 µM | > 100 µM |
| O=C(Nn1c(-c2ccccc2)nc2ccccc2c1=O)c1cccc([N+](=O)[O-])c1 | – | > 100 µM | > 100 µM | > 100 µM | > 100 µM | > 100 µM | > 100 µM | > 100 µM | – | > 100 µM | > 100 µM |
